The assay relates to co-cultures of HaCaT keratinocytes and neonatal primary human epidermal melanocytes. The experiment in a line: Melanin content assay (cellular melanin content in keratinocyte-melanocyte co-cultures). It is filed as cell-based. As to conditions: 72 h treatment, average % reduction in cellular melanin content; for inhibition at 10000 µM: single active at 10 mM. Here is the method: Neonatal primary human epidermal melanocytes were sourced from Life Technologies. Melanocytes were maintained in Medium 254 supplemented with Human Melanocyte Growth Supplement-2 (MGM).
HaCaT keratinocytes were maintained in DMEM medium containing 10% heat inactivated foetal bovine serum. All media were also supplemented with 10 U/mL penicillin G and 0.1 mg/mL streptomycin sulphate. Both cell types were maintained at 37° C. in a humidified incubator with 5% CO2 atmosphere.
Maintenance and sub-culturing of cells were carried out as per the manufacturer's instructions. For setup of co-cultures, HaCaT keratinocytes and melanocytes, each 40,000 cells were mixed (1:1 ratio) in 1 mL of a 1:1 mix of MGM:GM (KGM: EpiLife Medium supplemented with Human Keratinocyte Growth Supplement) and seeded as such per well, in 12 well Nunc plates.
Actives were prepared in media and test concentrations were added to cells along with relevant controls 24 h post seeding. After 72 h of active treatment, cell viability (using calcein method) and measurement of cellular melanin content was determined as described below.
After calcein fluorescence readings were obtained, cells were drained and fresh 0.15 mL of 1N NaOH (in 10% DMSO) per well was added. Cells were lysed by resuspension and incubated (60° C. for 1 h). Then, 0.1 mL of this lysate was transferred to a fresh 384-well plate and OD was measured at 405 nm in a TECAN M1000 plate reader (estimate of relative melanin content).

The results in this text go back to US20210085585A1, “A PERSONAL CARE COMPOSITION” (Conopco, Inc., d/b/a UNILEVER, priority 2017, published 2021).

As for `O=C(O)CCN1CCCCC1` [1PP, 1-piperidinepropionic acid], the inhibition at 10000 µM turned out to be 0%. The inhibition at 100 µM (single active at 100 uM) is 1%. Also, where the note is “single active at 1 mM”, the inhibition at 1000 µM is -5%.
Turning to `NC(=O)c1cccnc1` [3-pyridinecarboxamide], the inhibition at 10000 µM is 0%.
